Results taken from PubChem BioAssay AID2206 (Vanderbilt High Throughput Screening Facility, 2009).
Activity calls are given as the source filed them.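 How the source made its calls: active means average EC50 below 10 µM; inactive means average EC50 of 10 µM or more.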

Molecular target: Muscarinic acetylcholine receptor M1 (Rattus norvegicus) (UniProt P08482)
Assay: potentiation of ACh EC20 at rat M1 – cell-based, selectivity assay for M5 allosteric modulator project, SAR follow-up (AID 2206)
Conditions: CHO-K1 rat M1, Fluo-4 calcium

Sequence of Muscarinic acetylcholine receptor M1 (Rattus norvegicus) (P08482 whole entry, looked up): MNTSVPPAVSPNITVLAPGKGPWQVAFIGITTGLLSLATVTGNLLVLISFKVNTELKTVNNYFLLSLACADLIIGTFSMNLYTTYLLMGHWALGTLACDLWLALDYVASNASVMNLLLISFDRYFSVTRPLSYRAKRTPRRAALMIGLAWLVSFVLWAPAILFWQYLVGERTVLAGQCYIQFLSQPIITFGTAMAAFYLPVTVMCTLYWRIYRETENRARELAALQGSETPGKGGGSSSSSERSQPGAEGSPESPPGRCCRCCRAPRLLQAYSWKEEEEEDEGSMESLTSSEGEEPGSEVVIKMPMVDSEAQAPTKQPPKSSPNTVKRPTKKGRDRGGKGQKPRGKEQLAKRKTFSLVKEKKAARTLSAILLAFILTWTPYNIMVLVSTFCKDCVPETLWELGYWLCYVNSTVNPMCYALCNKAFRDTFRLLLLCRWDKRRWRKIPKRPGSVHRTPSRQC

| Compound | EC50 |
| --- | --- |
| Cc1ccccc1CN1C(=O)C(=O)c2cc(OC(F)(F)F)ccc21 | > 10 µM (inactive) |
| COc1ccc(CN2C(=O)C(=O)c3cccc(Cl)c32)cc1 | 5.38 µM |
| O=C1C(=O)N(Cc2ccccc2C(F)(F)F)c2ccc(F)cc21 | 6.21 µM |
| COc1cccc(CN2C(=O)C(=O)c3cc(OC(F)(F)F)ccc32)c1 | > 30 µM (inactive) |
| O=C1C(=O)N(Cc2ccc(Br)cc2)c2c(F)cccc21 | 3.99 µM |
| O=C1C(=O)N(Cc2ccc(Br)cc2F)c2ccc(OC(F)(F)F)cc21 | > 10 µM (inactive) |
| COc1cccc(CN2C(=O)C(=O)c3c(Cl)ccc(Cl)c32)c1 | > 30 µM (inactive) |
| COc1ccc(CN2C(=O)C(=O)c3ccccc32)cc1 | inactive |
| O=C1C(=O)N(Cc2ccccc2C(F)(F)F)c2c(F)cccc21 | > 30 µM (inactive) |

Second part, the molecule after the results:

| EC50 | Compound |
| --- | --- |
| > 30 µM (inactive) | O=C1C(=O)N(Cc2ccc(OC(F)(F)F)cc2)c2ccc(OC(F)(F)F)cc21 |
| > 30 µM (inactive) | O=C1C(=O)N(Cc2ccccc2Cl)c2ccc(OC(F)(F)F)cc21 |
| 5.41 µM | O=C1C(=O)N(Cc2ccc(C(F)(F)F)cc2)c2ccc(Cl)cc21 |
| 5.18 µM | O=C1C(=O)N(Cc2ccc(C(F)(F)F)cc2)c2c(F)cccc21 |
| > 30 µM (inactive) | COc1ccc(CN2C(=O)C(=O)c3cc(OC(F)(F)F)ccc32)cc1 |
| 7.09 µM | O=C1C(=O)N(Cc2ccc(C(F)(F)F)cc2)c2ccc(OC(F)(F)F)cc21 |
